Test results as given in patent US7306789B2, “Method of stimulating hair growth using benzopyrans” (Warner-Lambert Company, LLC, priority 2002, dated 2007).

Tests used:
[1] = system: Female C3H/HeN mice; assay: Mouse hair growth model (topical administration); type: in vivo; conditions: for Day on which 50% incidence of hair growth occurred: topical
Protocol: The effect of the benzopyran compound (3S,4R)-3,4-dihydro-4-(2,3-dihydro-2-methyl-3-oxopyridazin-6-yl)oxy-3-hydroxy-6-(3-hydroxyphenyl)sulphonyl-2,2,3-trimethyl-2H-benzo[b]pyran (Compound 1) on hair growth was evaluated by topical administration of the compound to mice. Compound 1 may be made according to the methods described in U.S. Pat. Nos. 5,912,244 and 6,071,938.
Female C3H/HeN mice, 42-46 days old (Charles River Laboratories, Raleigh, N.C.) were used for the study. The hair follicles of mice at this age are in the second telogen phase, which usually lasts from 6 to 9 weeks, providing a wide enough window to test compounds for their ability to induce earlier onset of anagen. Only mice with pink skin, a visual indication of the telogen phase, were selected for inclusion in the study.
Test compounds, including Compound 1, the potassium channel opener minoxidil (marketed as Rogaine® containing 2% minoxidil), and cyclosporin A, were dissolved in a vehicle consisting of propylene glycol (30%) and ethanol (70%). A test compound dissolved in vehicle, or a vehicle control (30/70 propylene glycol/ethanol, unless otherwise specified) was applied topically to the clipped dorsal region of the mice in each test group (7-10 mice) in a volume of 20 μl/cm^2. Treatments were applied once or twice daily, 5 days/week.
The treatment area was observed and graded for signs of hair growth and local skin irritation. The hair growth response was quantified by recording, for each animal, the day on which signs of hair growth first appeared over the treated area. The first sign of anagen was the darkening of skin color as melanocytes in the follicles started to synthesize melanin in preparation for the production of pigmented hairs. The response time was measured as the number of days following initiation of treatment when hair growth was present in 50% of the mice in a given group.

[2] = In vivo clearance in dog; conditions: low exposure to unchanged drug following oral or systemic administration
Excerpt: (§1) The compound is cleared by conjugation to produce the glucuronide and sulfate metabolites. The compound and its metabolites are rapidly taken up by the liver and excreted in the bile. Thus, following topical administration, any absorbed benzopyran is subject to high hepatic extraction, and thus low systemic exposure.

[3] = In vivo clearance in rat; conditions: low exposure to unchanged drug following oral or systemic administration
Excerpt: as §1

[4] = In vivo clearance in human; conditions: low exposure to unchanged drug following oral or systemic administration
Excerpt: as §1

[5] = In vitro metabolism experiments (conjugation); type: in vitro ADME
Excerpt: as §1

SMILES: Nc1cc(N2CCCCC2)nc(N)[n+]1[O-] [Minoxidil, minoxidil, reference compound]
- Day on which 50% incidence of hair growth occurred ([1]; dose 2.5%, 1 dose/day, duration 1 week, study 13 (vehicle 56)): 53 days
- Day on which 50% incidence of hair growth occurred ([1]; dose 2.5%, 1 dose/day, duration 4 weeks, study 13 (vehicle 58)): 39 days
- Day on which 50% incidence of hair growth occurred ([1]; dose 5%, 1 dose/day, duration 1 week, study 13 (vehicle 56)): 56 days
- Day on which 50% incidence of hair growth occurred ([1]; dose 5%, 1 dose/day, duration 4 weeks, study 13 (vehicle 58)): 37 days

SMILES: Cn1nc(O[C@@H]2c3cc(S(=O)(=O)c4cccc(O)c4)ccc3OC(C)(C)[C@@]2(C)O)ccc1=O [Compound 1, (3S,4R)-3,4-dihydro-4-(2,3-dihydro-2-methyl-3-oxopyridazin-6-yl)oxy-3-hydroxy-6-(3-hydroxyphenyl)sulphonyl-2,2,3-trimethyl-2H-benzo[b]pyran]
- Clearance [2]: rapid clearance
- Clearance [3]: rapid clearance
- Clearance [4]: rapid clearance
- Rate of conjugation [5]: high
- Quality of hair growth over the treated area ([1]; all cases of hair growth stimulation): full and thick hair growth
- Hair growth stimulation ([1]; applied topically at 0.3% or 1% once or twice daily for five days or up to 4 weeks): stimulated hair growth
- Efficacy relative to lower doses ([1]; concentrations greater than 1%): less efficacious than lower doses
- Behaviour of drug on the skin ([1]; concentrations greater than 1%, vehicle propylene glycol/ethanol): precipitation of drug on the skin
- Hair growth ([1]; concentrations lower than 0.3% (0.1% to 0.03%)): not observed
- Local irritation or other adverse effects ([1]; mice treated for 2 weeks with 5%): No local irritation or other adverse effects
- Day on which 50% incidence of hair growth occurred ([1]; dose 0.03%, 1 dose/day, duration 1 week, study 5 (vehicle >35)): >35 days
- Day on which 50% incidence of hair growth occurred ([1]; dose 0.03%, 1 dose/day, duration 1 week, study 6 (vehicle >35)): >35 days
- Day on which 50% incidence of hair growth occurred ([1]; dose 0.03%, 1 dose/day, duration 1 week, study 7 (vehicle >35)): >35 days
- Day on which 50% incidence of hair growth occurred ([1]; dose 0.03%, 1 dose/day, duration 1 week, study 9 (vehicle >35)): >35 days
- Day on which 50% incidence of hair growth occurred ([1]; dose 0.1%, 1 dose/day, duration 1 week, study 5 (vehicle >35)): >35 days
- Day on which 50% incidence of hair growth occurred ([1]; dose 0.1%, 1 dose/day, duration 1 week, study 6 (vehicle >35)): >35 days
- Day on which 50% incidence of hair growth occurred ([1]; dose 0.3%, 1 dose/day, duration 1 week, study 4 (vehicle 25)): 11 days
- Day on which 50% incidence of hair growth occurred ([1]; dose 0.3%, 1 dose/day, duration 1 week, study 5 (vehicle >35)): >35 days
- Day on which 50% incidence of hair growth occurred ([1]; dose 0.3%, 1 dose/day, duration 1 week, study 6 (vehicle >35)): >35 days
- Day on which 50% incidence of hair growth occurred ([1]; dose 0.3%, 1 dose/day, duration 1 week, study 7 (vehicle >35)): 14 days
- Day on which 50% incidence of hair growth occurred ([1]; dose 0.3%, 1 dose/day, duration 1 week, study 9 (vehicle >35)): 16 days
- Day on which 50% incidence of hair growth occurred ([1]; dose 0.3%, 1 dose/day, duration 1 week, study 10 (vehicle >35)): 21 days
- Day on which 50% incidence of hair growth occurred ([1]; dose 0.3%, 1 dose/day, duration 1 week, study 11 (vehicle 56)): 25 days
- Day on which 50% incidence of hair growth occurred ([1]; dose 0.3%, 1 dose/day, duration 1 week, study 12 (vehicle >35)): >35 days
- Day on which 50% incidence of hair growth occurred ([1]; dose 0.3%, 1 dose/day, duration 1 week, study 13 (vehicle 56)): 28 days
- Day on which 50% incidence of hair growth occurred ([1]; dose 0.3%, 1 dose/day, duration 4 weeks, study 10 (vehicle >35)): 23 days
- Day on which 50% incidence of hair growth occurred ([1]; dose 0.3%, 1 dose/day, duration 4 weeks, study 12 (vehicle >35)): 16 days
- Day on which 50% incidence of hair growth occurred ([1]; dose 0.3%, 1 dose/day, duration 4 weeks, study 13 (vehicle 56)): 35 days
- Day on which 50% incidence of hair growth occurred ([1]; dose 1%, 1 dose/day, duration 1 week, study 3 (vehicle 21)): 14 days
- Day on which 50% incidence of hair growth occurred ([1]; dose 1%, 1 dose/day, duration 1 week, study 4 (vehicle 25)): 11 days
- Day on which 50% incidence of hair growth occurred ([1]; dose 1%, 1 dose/day, duration 1 week, study 5 (vehicle >35)): >35 days
- Day on which 50% incidence of hair growth occurred ([1]; dose 1%, 1 dose/day, duration 1 week, study 8 (vehicle >35)): 21 days
- Day on which 50% incidence of hair growth occurred ([1]; dose 1%, 1 dose/day, duration 1 week, study 9 (vehicle >35)): 28 days
- Day on which 50% incidence of hair growth occurred ([1]; dose 1%, 1 dose/day, duration 1 week, study 10 (vehicle >35)): >35 days
- Day on which 50% incidence of hair growth occurred ([1]; dose 1%, 1 dose/day, duration 1 week, study 12 (vehicle >35)): 16 days
- Day on which 50% incidence of hair growth occurred ([1]; dose 1%, 1 dose/day, duration 4 weeks, study 10 (vehicle >35)): >35 days
- Day on which 50% incidence of hair growth occurred ([1]; dose 1%, 1 dose/day, duration 4 weeks, study 12 (vehicle >35)): 18 days
- Day on which 50% incidence of hair growth occurred ([1]; dose 1%, 2 doses/day, duration 2 weeks, study 1 (vehicle >35)): 25 days
- Day on which 50% incidence of hair growth occurred ([1]; dose 1%, 2 doses/day, duration 2 weeks, study 2 (vehicle >35)): 28 days
